Measured values as given in patent US10266497B2 (ABIDE THERAPEUTICS, INC., priority 2017, dated 2019).

How the values were obtained:
MAGL [1] = biological target: T1, MAGL (Homo sapiens, UniProt Q99685); assay: In vitro competitive activity-based protein profiling, MAGL, human; conditions: for inhibition at 1 µM: read-out: MAGL % inh. 1 μM (human)
T1 sequence (Q99685 1-303): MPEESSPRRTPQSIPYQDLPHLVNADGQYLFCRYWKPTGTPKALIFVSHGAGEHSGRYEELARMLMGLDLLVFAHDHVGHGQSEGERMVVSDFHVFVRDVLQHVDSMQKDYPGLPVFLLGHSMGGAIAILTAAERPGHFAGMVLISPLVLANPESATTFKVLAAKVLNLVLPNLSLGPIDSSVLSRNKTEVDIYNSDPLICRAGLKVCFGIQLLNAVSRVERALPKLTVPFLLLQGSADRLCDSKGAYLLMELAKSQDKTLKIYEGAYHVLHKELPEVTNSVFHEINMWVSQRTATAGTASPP

MAGL [2] = biological target: T2, MAGL (Mus musculus, UniProt O35678); assay: In vitro competitive activity-based protein profiling, MAGL, mouse; conditions: read-out: MAGL % inh. 1 μM (mouse)
T2 sequence (O35678 1-303): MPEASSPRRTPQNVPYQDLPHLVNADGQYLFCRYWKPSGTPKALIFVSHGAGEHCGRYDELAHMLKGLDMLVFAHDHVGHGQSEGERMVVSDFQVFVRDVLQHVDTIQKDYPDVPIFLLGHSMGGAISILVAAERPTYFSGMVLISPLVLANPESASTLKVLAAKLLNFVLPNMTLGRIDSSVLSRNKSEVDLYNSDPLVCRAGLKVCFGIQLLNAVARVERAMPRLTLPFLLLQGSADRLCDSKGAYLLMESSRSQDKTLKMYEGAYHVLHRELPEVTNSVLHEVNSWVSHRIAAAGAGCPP
Method: Biological Evaluation In Vitro Competitive Activity-Based Protein Profiling.
Proteomes (mouse brain membrane fraction for mouse assays; human prefrontal cortex membrane fractions for human assays) (50 mL, 1.0 mg/mL total protein concentration) were preincubated with varying concentrations of inhibitors at 37° C. After 30 min, FP-Rh (1.0 mL, 50 mM in DMSO) was added and the mixture was incubated for another 30 min at 37° C. Reactions were quenched with SDS loading buffer (15 μL—4λ) and run on SDS-PAGE.

| SMILES | inhibition at 1 µM (MAGL [1]) [%] | inhibition at 1 µM (MAGL [2]) [%] | IC50 (MAGL [1]) [nM] | inhibition at 10 µM (MAGL [1]; read-out: MAGL % inh. (human) at 10 uM) [%] |
| --- | --- | --- | --- | --- |
| O=C(O)c1ccn(C(=O)N2CCN(Cc3ccc(N4CC5COCC5C4)cc3C(F)(F)F)CC2)n1 (stereo not shown) [Example 379, 1-(4-(4-(tetrahydro-1H-furo[3,4-c]pyrrol-5(3H)-yl)-2-(trifluoromethyl)benzyl)piperazine-1-carbonyl)-1H-pyrazole-3-carboxylic acid] | > 75 | > 75 |  |  |
| C[C@H]1CN(Cc2ccc(C(F)(F)F)cc2N2CCCC2)CCN1C(=O)n1ccc(C(N)=O)n1 [Example 326, (S)-1-(2-methyl-4-(2-(pyrrolidin-1-yl)-4-(trifluoromethyl)benzyl)piperazine-1-carbonyl)-1H-pyrazole-3-carboxamide] | > 75 | > 75 |  |  |
| O=C(O)c1ccn(C(=O)N2CCN(Cc3ccc(Cl)c(-c4nccs4)c3)CC2)n1 [Example 274, 1-(4-(4-chloro-3-(thiazol-2-yl)benzyl)piperazine-1-carbonyl)-1H-pyrazole-3-carboxylic acid] | > 75 | > 75 |  |  |
| O=C(O)c1ccn(C(=O)N2CCC3(CCN(Cc4cccc(Cl)c4)C3)CC2)n1 [Example 227, 1-(2-(3-chlorobenzyl)-2,8-diazaspiro[4.5]decane-8-carbonyl)-1H-pyrazole-3-carboxylic acid] | > 75 | 25 to 50 |  |  |
| O=C(O)c1nn(C(=O)N2CCN(Cc3cc(F)cc(Oc4ccc(Cl)cc4)c3)CC2)cc1Cl [Example 378, 4-chloro-1-(4-(3-(4-chlorophenoxy)-5-fluorobenzyl)piper-azine-1-carbonyl)-1H-pyrazole-3-carboxylic acid] | > 75 | > 75 |  |  |
| O=C(O)c1ccn(C(=O)N2C[C@H]3C[C@@H](OCc4cccc(C(F)(F)F)c4)C[C@H]3C2)n1 [Example 255, 1-(trans-5-((3-(trifluoromethyl)benzyl)oxy)octa-hydrocyclopenta[c]pyrrole-2-carbonyl)-1H-pyrazole-3-carboxylic acid] | > 75 | > 75 | 100 to 1000 |  |
| O=C(O)c1ccn(C(=O)N2CCC3(CCN(Cc4cccc(Cl)c4Cl)C3)CC2)n1 [Example 286, 1-(2-(2,3-dichlorobenzyl)-2,8-diazaspiro[4.5]decane-8-carbonyl)-1H-pyrazole-3-carboxylic acid] | > 75 | > 75 |  |  |
| CC1(NCc2ccc(C(F)(F)F)cc2N2CCCC2)CCN(C(=O)n2ccc(C(=O)O)n2)CC1 [Example 361, 1-(4-methyl-4-((2-(pyrrolidin-1-yl)-4-(trifluoromethyl)benzyl)amino)piper-idine-1-carbonyl)-1H-pyrazole-3-carboxylic acid] | > 75 | > 75 |  |  |
| O=C(O)c1ccn(C(=O)N2CCC(OCc3ccc(Cl)c(C(F)(F)F)c3)CC2)n1 [Example 276, 1-(4-((4-chloro-3-(trifluoromethyl)benzyl)oxy)piper-idine-1-carbonyl)-1H-pyrazole-3-carboxylic acid] | > 75 | > 75 |  |  |
| O=C(O)c1ccn(C(=O)N2C[C@H]3C[C@H](Oc4cc(F)cc(Cl)c4)C[C@H]3C2)n1 [Example 222, 1-(trans-5-(3-chloro-5-fluorophenoxy)octa-hydrocyclopenta[c]pyrrole-2-carbonyl)-1H-pyrazole-3-carboxylic acid] | > 75 | > 75 |  |  |
| O=C(O)c1nn(C(=O)N2CC3CN(Cc4cc(Cl)cc(C(F)(F)F)c4)CC3C2)cc1Cl (stereo not shown) [Example 357, 4-chloro-1-(5-(3-chloro-5-(trifluoromethyl)benzyl)octahydro-pyrrolo[3,4-c]pyrrole-2-carbonyl)-1H-pyrazole-3-carboxylic acid] | > 75 | > 75 |  |  |
| Cc1cn(C(=O)N2C[C@H]3C[C@H](Oc4ccccc4-c4ccccc4)C[C@H]3C2)nc1C(=O)O [Example 281, 1-(trans-5-([1,1′-biphenyl]-2-yloxy)octahydro-cyclopenta[c]pyrrole-2-carbonyl)-4-methyl-1H-pyrazole-3-carboxylic acid] | > 75 | > 75 |  |  |
| O=C(O)c1ccn(C(=O)N2CCC(OCc3cccc(N4CCCC4)c3)CC2)n1 [Example 226, 1-(4-((3-(pyrrolidin-1-yl)benzyl)oxy)piper-idine-1-carbonyl)-1H-pyrazole-3-carboxylic acid] | > 75 | > 75 |  |  |
| CN(Cc1ccc(N2CCCC2)c(C(F)(F)F)c1)C1(C)CCN(C(=O)n2ccc(C(=O)O)n2)CC1 [Example 383, 1-(4-methyl-4-(methyl(4-(pyrrolidin-1-yl)-3-(trifluoromethyl)benzyl)amino)piper-idine-1-carbonyl)-1H-pyrazole-3-carboxylic acid] | > 75 | > 75 |  |  |
| O=C(O)c1ccn(C(=O)N2CCC(OCc3cc(Cl)cc(Cl)c3)CC2)n1 [Example 224, 1-(4-((3,5-dichlorobenzyl)oxy)piperidine-1-carbonyl)-1H-pyrazole-3-carboxylic acid] | > 75 | > 75 |  |  |
| Cc1cc(-c2cccc(S(C)(=O)=O)c2)ccc1CN1CCN(C(=O)n2ccc(C(=O)O)n2)[C@H](C)C1 [Example 386, (R)-1-(2-methyl-4-((3-methyl-3′-(methylsulfonyl)-[1,1′-biphenyl]-4-yl)methyl)piperazine-1-carbonyl)-1H-pyrazole-3-carboxylic acid] | 50 to 75 | > 75 |  |  |
| O=C(O)c1ccn(C(=O)N2C[C@H]3C[C@H](Oc4cccc(C5CC5)c4)C[C@H]3C2)n1 [Example 219, 1-(trans-5-(3-cyclopropylphenoxy)octahydrocyclopenta [c]pyrrole-2-carbonyl)-1H-pyrazole-3-carboxylic acid] | > 75 | > 75 |  |  |

Continued, values first:

| inhibition at 1 µM (MAGL [1]) [%] | inhibition at 1 µM (MAGL [2]) [%] | IC50 (MAGL [1]) [nM] | inhibition at 10 µM (MAGL [1]; read-out: MAGL % inh. (human) at 10 uM) [%] | SMILES |
| --- | --- | --- | --- | --- |
| > 75 | > 75 |  |  | O=C(O)c1ccn(C(=O)N2CCC3(CC2)CN(Cc2cc(Cl)ccc2C(F)(F)F)C3)n1 [Example 313, 1-(2-(5-chloro-2-(trifluoromethyl)benzyl)-2,7-diazaspiro[3.5]non-ane-7-carbonyl)-1H-pyrazole-3-carboxylic acid] |
| > 75 | > 75 |  |  | C[C@@H]1CN(Cc2cc(Cl)cc(C(F)(F)F)c2)CCN1C(=O)n1ccc(C(N)=O)n1 [Example 272, (R)-1-(4-(3-chloro-5-(trifluoromethyl)benzyl)-2-methylpiperazine-1-carbonyl)-1H-pyrazole-3-carboxamide] |
| > 75 | > 75 |  |  | O=C(O)c1nn(C(=O)N2C[C@H]3C[C@H](OCc4cccc(C(F)(F)F)c4)C[C@H]3C2)cc1Cl [Example 314, 4-chloro-1-(trans-5-((3-(trifluoromethyl)benzyl)oxy)octa-hydrocyclopenta[c]pyrrole-2-carbonyl)-1H-pyrazole-3-carboxylic acid] |
| > 75 | > 75 |  |  | O=C(O)c1ccn(C(=O)N2CCC3(CCN(Cc4cccc(Cl)c4C(F)(F)F)C3)CC2)n1 [Example 340, 1-(2-(3-chloro-2-(trifluoromethyl)benzyl)-2,8-diazaspiro[4.5]decane-8-carbonyl)-1H-pyrazole-3-carboxylic acid] |
| 25 to 50 | 0 to 25 |  |  | O=C(O)c1ccn(C(=O)N2CCC3(CCCN3Cc3ccc(C(F)(F)F)cc3N3CCN4CCC[C@H]4C3)CC2)n1 [Example 418, (S)-1-(1-(2-(hexahydropyrrolo[1,2-a]pyrazin-2(1H)-yl)-4-(trifluoromethyl)benzyl)-1,8-diazaspiro[4.5]decane-8-carbonyl)-1H-pyrazole-3-carboxylic acid] |
| > 75 | > 75 |  |  | O=C(O)c1nn(C(=O)N2CCN(Cc3cccc(Oc4ccc(F)cc4)c3)CC2)cc1Cl [Example 320, 4-chloro-1-(4-(3-(4-fluorophenoxy)benzyl)piperazine-1-carbonyl)-1H-pyrazole-3-carboxylic acid] |
| > 75 | > 75 |  |  | O=C(O)c1nn(C(=O)N2CCN(Cc3cc(F)cc(Oc4ccc(Cl)cc4)c3)CC2)cc1C(F)(F)F [Example 408] |
|  | 0 to 25 |  | > 75 | O=C(O)c1ccn(C(=O)N2CCC3(CCN(C(=O)c4cc(Cl)ccc4C(F)(F)F)C3)CC2)n1 [Example 366, 1-(2-(5-chloro-2-(trifluoromethyl)benzoyl)-2,8-diazaspiro[4.5]decane-8-carbonyl)-1H-pyrazole-3-carboxylic acid] |
| > 75 | > 75 |  |  | C[C@@H]1CN(Cc2cccc(OCC(C)(C)O)c2Cl)CCN1C(=O)n1ccc(C(N)=O)n1 [Example 216, (R)-1-(4-(2-chloro-3-(2-hydroxy-2-methylpropoxy)benzyl)-2-methylpiperazine-1-carbonyl)-1H-pyrazole-3-carboxamide] |
| > 75 | > 75 |  |  | O=C(O)c1ccn(C(=O)N2C[C@H]3C[C@H](Oc4ccc(-c5ccccc5)cc4)C[C@H]3C2)n1 [Example 240, 1-(trans-5-([1,1′-biphenyl]-4-yloxy)octahydro-cyclopenta[c]pyrrole-2-carbonyl)-1H-pyrazole-3-carboxylic acid] |
